Test system: NTS gene
Experiment: NTS transcript RT-PCR in HBEC after hormonal treatment
Format: cell-based, human
Conditions: 1 μM ICI 182780 added concomitantly to 10 nM estradiol, 48 h
Method: A) Left, one μg of total RNA from HBEC or whole gland were reverse-transcribed and a PCR experiment specific for NTS was performed. Right, one μg of total RNA from HBEC cells (control, treated with 10 nM estradiol (E2) with or without 1 μM ICI 182780) was reverse-transcribed. A PCR experiment was performed using specific primers for NTS and GAPDH.
The protocols for total RNA extraction, reverse-transcription reaction (RT), and PCR are documented in Souaze et al (Souaze F, Rostene W, Forgez P (1997) J. Biol. Chem. 272:10087-10094). RT was performed on 1 μg of total RNA using a specific NTSR1 primer (5′-[…]-3′ SEQ ID NO:3) or 50 pmol of oligo dT and oligo dN. The PCR amplification was performed on a 1:5 v/v of the RT reaction using 25 pmol of each primer 5′-[…]-3′ SEQ ID NO:4 and 5′-[…]-3′ SEQ ID NO:5 for NTSR1, and 5′-[…]-3′ SEQ ID NO:6 and 5′-[…]-3′ SEQ ID NO:7 for NTS, and 1 unit of Taq polymerase (Applied Biosystems, Courtaboeuf, France). The amplification profile consisted of denaturation at 94° C. for 30 s, annealing at 57° C. for 45 s, and extension at 72° C. for 45 s. The PCR cycle were preceded by denaturation at 95° C. for 15 min and were followed by a final extension at 72° C. for 7 min.
HBEC were synchronized for 40 h in Ham F10 phenol red free medium containing 20 μM lovastatin. Synchronization was stopped by adding 2 mM mevalonate to the hormone-containing medium. […]

C[C@]12CC[C@@H]3c4ccc(O)cc4C[C@@H](CCCCCCCCC[S+]([O-])CCCC(F)(F)C(F)(F)F)[C@H]3[C@@H]1CC[C@@H]2O (stereo partly shown) [ICI 182780]
effect on the estradiol-induced enhancement of NTS transcripts: abolished
